Values of other authors as cited in patent US20230241194A1, “PRE-ERYTHROCYTIC MALARIA VACCINES” (PATH, priority 2020, published 2023).

Molecular target: T1, TLR7 (Homo sapiens, UniProt Q9NYK1)
T1 sequence (Q9NYK1 27-1049): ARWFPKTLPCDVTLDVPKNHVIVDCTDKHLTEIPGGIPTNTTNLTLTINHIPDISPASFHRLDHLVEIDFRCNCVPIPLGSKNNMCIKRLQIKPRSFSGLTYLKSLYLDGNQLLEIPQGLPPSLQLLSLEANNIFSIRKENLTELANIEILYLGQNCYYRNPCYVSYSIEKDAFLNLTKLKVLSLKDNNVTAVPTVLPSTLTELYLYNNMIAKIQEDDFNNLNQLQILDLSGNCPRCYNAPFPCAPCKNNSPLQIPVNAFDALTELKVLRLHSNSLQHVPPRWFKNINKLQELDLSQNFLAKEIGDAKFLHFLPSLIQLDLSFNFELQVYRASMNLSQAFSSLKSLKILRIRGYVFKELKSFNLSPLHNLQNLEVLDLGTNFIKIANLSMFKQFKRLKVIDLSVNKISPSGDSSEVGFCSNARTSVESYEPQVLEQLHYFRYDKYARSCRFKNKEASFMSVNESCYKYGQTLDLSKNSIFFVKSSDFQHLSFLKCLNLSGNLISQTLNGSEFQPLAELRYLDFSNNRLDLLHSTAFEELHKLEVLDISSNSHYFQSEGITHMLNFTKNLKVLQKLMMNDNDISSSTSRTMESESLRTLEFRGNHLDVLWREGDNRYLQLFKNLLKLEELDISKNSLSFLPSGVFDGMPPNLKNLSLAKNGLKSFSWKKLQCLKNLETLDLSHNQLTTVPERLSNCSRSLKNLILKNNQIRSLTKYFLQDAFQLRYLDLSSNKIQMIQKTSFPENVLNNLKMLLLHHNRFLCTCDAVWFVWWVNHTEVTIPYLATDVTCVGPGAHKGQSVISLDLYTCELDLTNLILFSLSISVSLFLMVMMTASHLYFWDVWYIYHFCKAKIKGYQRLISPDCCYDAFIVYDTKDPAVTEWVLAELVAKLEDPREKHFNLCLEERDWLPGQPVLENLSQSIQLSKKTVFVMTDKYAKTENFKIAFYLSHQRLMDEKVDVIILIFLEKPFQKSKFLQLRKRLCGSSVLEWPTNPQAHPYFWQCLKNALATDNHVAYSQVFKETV
Conditions: reported in PTL 1

CCC[C@@H](CCO)Nc1nc(N)nc(C)c1Cc1ccc(CN(C)CCNC(=O)CC/C(C)=C/CC/C(C)=C/CC/C(C)=C/CC/C=C(\C)CC/C=C(\C)CCC=C(C)C)cc1 [Compound A, (4E,8E,12E,16E,20E)-N-{2-[{4-[(2-amino-4-{[(3S)-1-hydroxyhexan-3-yl]amino}-6-methylpyrimidin-5-yl)methyl]benzyl}(methyl)amino]ethyl}-4,8,12,17,21,25-hexamethylhexacosa-4,8,12,16,20,24-hexaenamide]
TLR7 agonistic activity: having TLR7 agonistic activity
